From patent US20220226341A1, “Pharmaceutical Composition for Alzheimer's Disease” (Kyoto University, priority 2019, published 2022)

Tests used:
[1] = Tissue distribution of radioactivity after single intravenous administration of 14C-labeled Compound 1 (blood-brain barrier penetration); assay type: in vivo; settings: rats, single iv 5 mg/kg 14C-labeled; for Radioactivity concentration: n = 3
Procedure: [Testing the Penetration of the Compound Through the Blood-Brain Barrier]
Brain permeability (intracerebral transferability) of Compound 1 was evaluated.
^14C-labeled Compound 1 was intravenously administered once in a dose of 5 mg/kg (3.52 MBq/kg) to rats, and histological distribution (biodistribution) thereof was studied.

[2] = test system: Human Herpesvirus Type 6A (HHV-6A); experiment: Antiviral test against HHV-6A in Sup-T1 cells, TaqMan PCR; assay type: cell-based
Procedure: [Antiviral Test Against HHV-6A]
An antiviral test against HHV-6A using Compound 1 was performed by the following procedure.
Virus strain: Human Herpesvirus Type 6A (HHV-6A)
(§1) Medium: RPMI-1640+10% FBS+1% penicillin/streptomycin
(§2) Detection method: TaqMan PCR
Sup-T1 cells were cultured at a concentration of 1×10^6/ml, Compound 1, 3 μM, was added, and one hour after, HHV-6A virus (1×10^4 infectious units) were sensitized (or unsensitized cells were prepared as a negative control).
After culturing at 37° C. for two hours, the medium was replaced, and Compound 1 was added again. Three days after, 500 μl of the medium was sampled, and HHV-6A virus was quantified by TaqMan PCR. Statistical analysis was performed by Student's t-test.

[3] = test system: Human Herpesvirus Type 7 (HHV-7); experiment: Antiviral test against HHV-7 in Sup-T1 cells, TaqMan PCR; assay type: cell-based
Procedure: [Antiviral Test Against HHV-7]
An antiviral test against HHV-7 using Compound 1 was performed by the following procedure.
Virus strain: Human Herpesvirus Type 7 (HHV-7)
as §1, §2
Sup-T1 cells were cultured at a concentration of 1×10^6/ml, Compound 1, 10 μM, was added, and one hour after, HHV-7 virus (1×10^4 infectious units) were sensitized (or unsensitized cells were prepared as a negative control).
After culturing at 37° C. for two hours, the medium was replaced, and Compound 1 was added again. Five days after, 500 μl of the medium was sampled, and HHV-7 virus was quantified by TaqMan PCR. Statistical analysis was performed by Student's t-test.

SMILES: Fc1ccc(N2CCCCC2)c(NC(=S)c2ccncc2)c1 [Compound 1]
- Radioactivity concentration ([1]; Mandibular gland, 6 h): 995.48 ng eq. of Compound 1/g or mL
- Radioactivity concentration ([1]; Mandibular gland, 24 h): 115.51 ng eq. of Compound 1/g or mL
- Radioactivity concentration ([1]; Mandibular gland, 72 h): 8.87 ng eq. of Compound 1/g or mL
- Radioactivity concentration ([1]; Mandibular lymph node, 5 min): 5693.66 ng eq. of Compound 1/g or mL
- Radioactivity concentration ([1]; Mandibular lymph node, 6 h): 1018.12 ng eq. of Compound 1/g or mL
- Radioactivity concentration ([1]; Mandibular lymph node, 24 h): 108.82 ng eq. of Compound 1/g or mL
- Radioactivity concentration ([1]; Mandibular lymph node, 72 h): 8.13 ng eq. of Compound 1/g or mL
- Radioactivity concentration ([1]; Pancreas, 5 min): 14356.66 ng eq. of Compound 1/g or mL
- Radioactivity concentration ([1]; Pancreas, 6 h): 1206.84 ng eq. of Compound 1/g or mL
- Radioactivity concentration ([1]; Pancreas, 24 h): 105.62 ng eq. of Compound 1/g or mL
- Radioactivity concentration ([1]; Pancreas, 72 h): 7.37 ng eq. of Compound 1/g or mL
- Radioactivity concentration ([1]; Prostate gland, 5 min): 5072.42 ng eq. of Compound 1/g or mL
- Radioactivity concentration ([1]; Prostate gland, 6 h): 1268.5 ng eq. of Compound 1/g or mL
- Radioactivity concentration ([1]; Prostate gland, 24 h): 114.45 ng eq. of Compound 1/g or mL
- Radioactivity concentration ([1]; Prostate gland, 72 h): 7.62 ng eq. of Compound 1/g or mL
- Radioactivity concentration ([1]; Skeletal muscle, 5 min): 2479.87 ng eq. of Compound 1/g or mL
- Radioactivity concentration ([1]; Skeletal muscle, 6 h): 838.23 ng eq. of Compound 1/g or mL
- Radioactivity concentration ([1]; Skeletal muscle, 24 h): 97.94 ng eq. of Compound 1/g or mL
- Radioactivity concentration ([1]; Skeletal muscle, 72 h): 10.11 ng eq. of Compound 1/g or mL
- Radioactivity concentration ([1]; Skin, 5 min): 3889.26 ng eq. of Compound 1/g or mL
- Radioactivity concentration ([1]; Skin, 6 h): 2084.85 ng eq. of Compound 1/g or mL
- Radioactivity concentration ([1]; Skin, 24 h): 150.1 ng eq. of Compound 1/g or mL
- Radioactivity concentration ([1]; Skin, 72 h): 23.26 ng eq. of Compound 1/g or mL
- Radioactivity concentration ([1]; Skin, 168 h): 6.57 ng eq. of Compound 1/g or mL
- Radioactivity concentration ([1]; Small intestine, 5 min): 6555.86 ng eq. of Compound 1/g or mL
- Radioactivity concentration ([1]; Small intestine, 6 h): 1979.83 ng eq. of Compound 1/g or mL
- Radioactivity concentration ([1]; Small intestine, 24 h): 156.71 ng eq. of Compound 1/g or mL
- Radioactivity concentration ([1]; Small intestine, 72 h): 9.85 ng eq. of Compound 1/g or mL
- Radioactivity concentration ([1]; Spleen, 5 min): 6622.6 ng eq. of Compound 1/g or mL
- Radioactivity concentration ([1]; Spleen, 6 h): 944.65 ng eq. of Compound 1/g or mL
- Radioactivity concentration ([1]; Spleen, 24 h): 113.01 ng eq. of Compound 1/g or mL
- Radioactivity concentration ([1]; Spleen, 72 h): 9.68 ng eq. of Compound 1/g or mL
- Radioactivity concentration ([1]; Stomach, 5 min): 8261.97 ng eq. of Compound 1/g or mL
- Radioactivity concentration ([1]; Stomach, 6 h): 2309.97 ng eq. of Compound 1/g or mL
- Radioactivity concentration ([1]; Stomach, 24 h): 227.12 ng eq. of Compound 1/g or mL
- Radioactivity concentration ([1]; Testis, 5 min): 2762.22 ng eq. of Compound 1/g or mL
- Radioactivity concentration ([1]; Testis, 6 h): 1217.12 ng eq. of Compound 1/g or mL
- Radioactivity concentration ([1]; Testis, 24 h): 128.05 ng eq. of Compound 1/g or mL
- Radioactivity concentration ([1]; Testis, 72 h): 8.72 ng eq. of Compound 1/g or mL
- Radioactivity concentration ([1]; Thymus, 5 min): 5034.15 ng eq. of Compound 1/g or mL
- Radioactivity concentration ([1]; Thymus, 6 h): 954.13 ng eq. of Compound 1/g or mL
- Radioactivity concentration ([1]; Thymus, 24 h): 97.42 ng eq. of Compound 1/g or mL
- Radioactivity concentration ([1]; Thymus, 72 h): 5.22 ng eq. of Compound 1/g or mL
- Radioactivity concentration ([1]; Thyroid gland, 5 min): 9550.71 ng eq. of Compound 1/g or mL
- Radioactivity concentration ([1]; Thyroid gland, 6 h): 2369.71 ng eq. of Compound 1/g or mL
- Radioactivity concentration ([1]; Thyroid gland, 24 h): 793.99 ng eq. of Compound 1/g or mL
- Radioactivity concentration ([1]; Thyroid gland, 72 h): 298.2 ng eq. of Compound 1/g or mL
- Radioactivity concentration ([1]; Thyroid gland, 168 h): 125.76 ng eq. of Compound 1/g or mL
- Brain permeability (intracerebral transferability) ([1]; cerebellum, cerebrum, pituitary gland higher than plasma at 5 minutes): capable of penetrating the brain
- Effect of suppressing growth of HHV-6A ([2]; 3 μM, in words): effect of suppressing growth of HHV-6A in the Compound 1-treated group was confirmed
- HHV-6A copy number ([2]; Compound 1 3 μM, medium sampled three days after, TaqMan PCR): 6767.59
- Effect of suppressing growth of HHV-7 ([3]; 10 μM, in words): effect of suppressing growth of HHV-7 was confirmed
- HHV-7 copy number ([3]; Compound 1 10 μM, medium sampled five days after, TaqMan PCR): 1844.89
